Some results are limits rather than exact numbers.

This assay deals with Plasmodium berghei. Nature of the assay: Luciferase/luciferin-expressing antifolate-resistant parasites were used to infect a culture of HepG2 cells that were pre-incubated with compounds. Infected hepatocytes emit light due to the luciferase reaction. Assay results are presented as the percent inhibition of light emission compared to control. […]. It counts as functional. Conditions: sporozoite; for IC90: read-out: LUCIFERASE INFECTION ASSAY - IC90.

As for `N/C(=N\OC(=O)c1ccc2ncsc2c1)c1ccccc1`, the IC90 was determined as 9.73 µM. The IC50 (FFLUC_HILL_SLOPE 2.58, FFLUC_R_SQUARED 0.671, PBLUC_HILL_SLOPE 1.01, PBLUC_R_SQUARED 0.623, read-out: LUCIFERASE INFECTION ASSAY - IC50) came to 1.1 µM.

For the compound `O=C1Nc2ccc(Cl)cc2/C1=C/c1ccc(-c2ccccc2)cc1`, the IC90 is more than 10 µM. Besides, the IC50 (FFLUC_HILL_SLOPE 2.74, FFLUC_R_SQUARED 0.354, PBLUC_HILL_SLOPE 5.72, PBLUC_R_SQUARED 0.824, read-out: LUCIFERASE INFECTION ASSAY - IC50) is 8.45 µM.

As to `O=C(COC(=O)c1cc2ccccc2cc1O)NC(c1ccccc1)c1ccccc1`, the concentration for an effect of 90% (IC90) was more than 10 µM. For the same compound, the IC50 (FFLUC_HILL_SLOPE 2.56, FFLUC_R_SQUARED 0.57, PBLUC_HILL_SLOPE 2.71, PBLUC_R_SQUARED 0.551, read-out: LUCIFERASE INFECTION ASSAY - IC50) was 4.79 µM.

Consider `Cc1cc(C2(c3cc(C)n(-c4ccccc4)c3C)CCC(C)CC2)c(C)n1-c1ccccc1`, for which the IC90 was more than 10 µM. In addition, where the note is “FFLUC_HILL_SLOPE 2.77, FFLUC_R_SQUARED 0.531, read-out: LUCIFERASE INFECTION ASSAY - IC50”, the IC50 is more than 10 µM.

For the compound `Cc1nc(C2(NC(=O)COc3ccc4ccccc4c3)CCCCC2)no1`, the 90% effect concentration (IC90) is more than 10 µM. Besides, the IC50 (FFLUC_HILL_SLOPE 2.65, FFLUC_R_SQUARED 0.0928, read-out: LUCIFERASE INFECTION ASSAY - IC50) was more than 10 µM.

As for `CC1(C)CC(=O)C(C(c2ccc(OCc3ccccc3)cc2)C2C(=O)CC(C)(C)CC2=O)C(=O)C1`, the IC90 was more than 10 µM. Where the note is “FFLUC_HILL_SLOPE 2.7, FFLUC_R_SQUARED 0.381, read-out: LUCIFERASE INFECTION ASSAY - IC50”, the IC50 was more than 10 µM.

`CCOC(=O)c1c(-c2ccc(Br)cc2)cn2c(=O)/c(=C3\C=CC=CN3C)sc12`: the IC90 is more than 10 µM. The IC50 (FFLUC_HILL_SLOPE 2.7, FFLUC_R_SQUARED 0.575, PBLUC_HILL_SLOPE 2.12, PBLUC_R_SQUARED 0.479, read-out: LUCIFERASE INFECTION ASSAY - IC50) came out at 7.05 µM.

Regarding `CC(C)(C)c1ccc(C(=N)NOC(=O)c2sccc2Cl)cc1`, the IC90 turned out to be 2.4 µM. Where the note is “FFLUC_HILL_SLOPE 2.56, FFLUC_R_SQUARED 0.405, HEPG2TOX_HILL_SLOPE 0.0994, HEPG2TOX_R_SQUARED 0.101, PBLUC_HILL_SLOPE 0.809, PBLUC_R_SQUARED 0.834, read-out: LUCIFERASE INFECTION ASSAY - IC50”, the IC50 came to 0.159 µM.

On to `CCOC(=O)c1c(NC(=O)CSc2nnc3n(-c4c(C)cccc4C)c(=O)c4ccccc4n23)sc(C(C)=O)c1C`, for which the concentration for an effect of 90% (IC90) is 5.29 µM. Also, the concentration for half-maximal inhibition (IC50) (FFLUC_HILL_SLOPE 2.66, FFLUC_R_SQUARED 0.447, PBLUC_HILL_SLOPE 3.22, PBLUC_R_SQUARED 0.684, read-out: LUCIFERASE INFECTION ASSAY - IC50) worked out at 2.67 µM.

`O=[N+]([O-])c1ccc(-c2[nH]nc(-c3ccccc3)c2-c2ccc3ccccc3n2)cc1`: the IC90 worked out at 9.84 µM. Also, the IC50 (FFLUC_HILL_SLOPE 2.78, FFLUC_R_SQUARED 0.0561, HEPG2TOX_HILL_SLOPE 6.28, HEPG2TOX_R_SQUARED 0.62, PBLUC_HILL_SLOPE 3.02, PBLUC_R_SQUARED 0.452, read-out: LUCIFERASE INFECTION ASSAY - IC50) worked out at 4.75 µM.

`O=C(Nc1nc2ccccc2[nH]1)c1cn(-c2ccccc2C(F)(F)F)nn1`: the IC90 is more than 10 µM. Also, under “FFLUC_HILL_SLOPE 2.58, FFLUC_R_SQUARED 0.587, PBLUC_HILL_SLOPE 2.16, PBLUC_R_SQUARED 0.829, read-out: LUCIFERASE INFECTION ASSAY - IC50”, the IC50 was determined as 5.53 µM.

Turning to `c1ccc(NCc2ccc(-c3cn4c(-c5ccccc5)cnc4cn3)cc2)cc1`, the IC90 was more than 8.77 µM. For the same compound, the IC50 (FFLUC_HILL_SLOPE 2.57, FFLUC_R_SQUARED 0.0602, PBLUC_HILL_SLOPE 15.1, PBLUC_R_SQUARED 0.239, read-out: LUCIFERASE INFECTION ASSAY - IC50) came out at 7.8 µM.

In the case of `Cc1nn(-c2ccccc2)c2nc(-c3cccs3)cc(C(=O)OC(C)C(=O)N3CCCc4ccccc43)c12` (stereo unspecified), the IC90 is more than 10 µM. Further, under “FFLUC_HILL_SLOPE 2.63, FFLUC_R_SQUARED 0.683, PBLUC_HILL_SLOPE 9.18, PBLUC_R_SQUARED 0.333, read-out: LUCIFERASE INFECTION ASSAY - IC50”, the IC50 was determined as 8.32 µM.

In the case of `Cc1ccc(C2CC(c3cccs3)=NN2c2ccc(C=C(C#N)C#N)cc2)o1` (stereo unspecified), the IC90 is more than 10 µM. Moreover, the IC50 (FFLUC_HILL_SLOPE 2.65, FFLUC_R_SQUARED 0.905, HEPG2TOX_HILL_SLOPE 1.94, HEPG2TOX_R_SQUARED 0.705, PBLUC_HILL_SLOPE 0.92, PBLUC_R_SQUARED 0.729, read-out: LUCIFERASE INFECTION ASSAY - IC50) stood at 1.71 µM.

Consider `C/N=c1\scc(-c2ccc(OC(F)F)cc2)n1/N=C/c1cccs1`, for which the IC90 stood at 2.72 µM. For the same compound, the IC50 (FFLUC_HILL_SLOPE 2.65, FFLUC_R_SQUARED 0.0605, PBLUC_HILL_SLOPE 1.58, PBLUC_R_SQUARED 0.688, read-out: LUCIFERASE INFECTION ASSAY - IC50) came to 0.676 µM.

On to `CC(C)C(=O)Nc1ccc(-c2nc3ccccc3[nH]2)cc1`, for which the IC90 is more than 11.8 µM. In addition, under “FFLUC_HILL_SLOPE 2.58, FFLUC_R_SQUARED 0.591, PBLUC_HILL_SLOPE 1.21, PBLUC_R_SQUARED 0.595, read-out: LUCIFERASE INFECTION ASSAY - IC50”, the IC50 came out at 4.49 µM.

Consider `O=C(CSc1nnc(Nc2ccc(Oc3ccccc3)cc2)s1)c1cccs1`, for which the IC90 was determined as 4.38 µM. For the same compound, the IC50 (FFLUC_HILL_SLOPE 2.69, FFLUC_R_SQUARED 0.808, PBLUC_HILL_SLOPE 3.49, PBLUC_R_SQUARED 0.557, read-out: LUCIFERASE INFECTION ASSAY - IC50) came out at 2.33 µM.

For `CC1=NN(c2ccccc2)C(=O)/C1=C\c1cc(C)n(-c2cc(C(F)(F)F)ccc2Cl)c1C`, the concentration for an effect of 90% (IC90) is more than 10 µM. Moreover, where the note is “FFLUC_HILL_SLOPE 2.69, FFLUC_R_SQUARED 0.551, PBLUC_HILL_SLOPE 5.7, PBLUC_R_SQUARED 0.538, read-out: LUCIFERASE INFECTION ASSAY - IC50”, the half-inhibitory concentration (IC50) was determined as 7.1 µM.

On to `O=C(c1cc2c(s1)CCC2)N1C=CN(c2ccc(C(F)(F)F)cn2)C1c1nccn1-c1ccc(C(F)(F)F)cn1` (stereo unspecified), for which the IC90 is more than 10 µM. Besides, the IC50 (FFLUC_HILL_SLOPE 2.58, FFLUC_R_SQUARED 0.668, PBLUC_HILL_SLOPE 14.8, PBLUC_R_SQUARED 0.174, read-out: LUCIFERASE INFECTION ASSAY - IC50) is 9.12 µM.

For `C=C(C)CNC(=S)N/N=C1\C(=O)Nc2ccc([N+](=O)[O-])cc21`, the IC90 is more than 10 µM. In addition, for the setting “FFLUC_HILL_SLOPE 2.67, FFLUC_R_SQUARED 0.288, PBLUC_HILL_SLOPE 15.8, PBLUC_R_SQUARED 0.124, read-out: LUCIFERASE INFECTION ASSAY - IC50”, the IC50 was 8.97 µM.

As for `COC(=O)C1C(c2ccc(N(C)C)cc2)C(C(=O)OC)S(=O)(=O)C(=NNc2ccc(OC)cc2[N+](=O)[O-])S1(=O)=O` (stereo unspecified), the concentration for an effect of 90% (IC90) was more than 10 µM. Further, for the setting “FFLUC_HILL_SLOPE 2.66, FFLUC_R_SQUARED 0.775, read-out: LUCIFERASE INFECTION ASSAY - IC50”, the IC50 was more than 10 µM.

`O=C1C(=O)N(Cc2cc3c(cc2Cl)OCO3)c2ccc(Cl)cc21`: the IC90 is more than 9.42 µM. In addition, the IC50 (FFLUC_HILL_SLOPE 2.77, FFLUC_R_SQUARED 0.777, PBLUC_HILL_SLOPE 11.7, PBLUC_R_SQUARED 0.0264, read-out: LUCIFERASE INFECTION ASSAY - IC50) was determined as 8.5 µM.

Take `CCc1nn2c(=O)cc(CSc3ccc(C)cc3)[nH]c2c1-c1ccc(F)cc1`: the IC90 came to 2.98 µM. Also, for the setting “FFLUC_HILL_SLOPE 2.56, FFLUC_R_SQUARED 0.75, PBLUC_HILL_SLOPE 10.5, PBLUC_R_SQUARED 0.512, read-out: LUCIFERASE INFECTION ASSAY - IC50”, the IC50 came to 2.42 µM.

As to `Cc1ccc(S(=O)(=O)Nc2ccc(Oc3ccc(Cl)cc3)cc2)cc1`, the IC90 was more than 8.83 µM. Moreover, the IC50 (FFLUC_HILL_SLOPE 2.59, FFLUC_R_SQUARED 0.0226, PBLUC_HILL_SLOPE 17.9, PBLUC_R_SQUARED 0.275, read-out: LUCIFERASE INFECTION ASSAY - IC50) was 8.28 µM.

With `OC(c1cccc(OC(F)(F)F)c1)c1nnc(Nc2ccc(F)c(Cl)c2)s1` (stereo unspecified), the 90% effect concentration (IC90) was more than 10 µM. Besides, the IC50 (FFLUC_HILL_SLOPE 2.61, FFLUC_R_SQUARED 0.0634, read-out: LUCIFERASE INFECTION ASSAY - IC50) is more than 10 µM.

In the case of `Cc1ccc(C(C)C)c(OCC(=O)Nc2ccc(I)c(C)n2)c1`, the IC90 was more than 10 µM. The 50% inhibitory concentration (IC50) (FFLUC_HILL_SLOPE 2.58, FFLUC_R_SQUARED 0.455, read-out: LUCIFERASE INFECTION ASSAY - IC50) is more than 10 µM.

Consider `N#CC1C(=N)Oc2c3c(c4ccccc4c2C1c1ccc(Cl)cc1)C(c1ccc(Cl)cc1)C(C#N)C(=N)O3` (stereo unspecified), for which the IC90 was more than 6.14 µM. For the same compound, the IC50 (FFLUC_HILL_SLOPE 2.7, FFLUC_R_SQUARED 0.81, HEPG2TOX_HILL_SLOPE 15, HEPG2TOX_R_SQUARED 0.458, PBLUC_HILL_SLOPE 19.3, PBLUC_R_SQUARED 0.191, read-out: LUCIFERASE INFECTION ASSAY - IC50) worked out at 5.72 µM.

Regarding `O=c1c(Cl)c(Cl)cnn1-c1cc(Cl)cc(Cl)c1`, the IC90 worked out at 4.28 µM. Also, the IC50 (FFLUC_HILL_SLOPE 2.56, FFLUC_R_SQUARED 0.592, HEPG2TOX_HILL_SLOPE 5.14, HEPG2TOX_R_SQUARED 0.846, PBLUC_HILL_SLOPE 13.3, PBLUC_R_SQUARED 0.218, read-out: LUCIFERASE INFECTION ASSAY - IC50) came out at 3.63 µM.

Source of the values: ChEMBL document CHEMBL4483862, “Open-source discovery of chemical leads for next-generation chemoprotective antimalarials” (2018).
